For orientation: IC50 means the concentration that gives 50% inhibition. A low value points to greater potency.

Inhibition and IC50 data for two compounds are collected here from ChEMBL document CHEMBL4334430, “A cell-based screening system for RNA polymerase I inhibitors” (Medchemcomm, 2019).

Calls of active or inactive are those of the source. No cut-off for these calls is given here.

Assay [1] relates to Saccharomyces cerevisiae. In words: Inhibition of yeast RNA polymerase 1 in YBR140C cells expressing human RNA polymerase 1 promoter and rRNA assessed as reduction in human rDNA transcription at 390 to 3120 nM by qRT-PCR analysis. The format is cell-based. (In general: Real-time PCR tracks product formation cycle by cycle.)
Assay [2] relates to A2780. In words: Antiproliferative activity against human A2780 cells incubated for 4 days by MTT assay. It is filed as functional, cell-based. The settings on record: A2780, 96 h.
Assay [3] concerns Saccharomyces cerevisiae. In words: Inhibition of yeast RNA polymerase 1 in YBR140C cells expressing human RNA polymerase 1 promoter and rRNA assessed as reduction in cell growth at 390 to 1560 nM by UV-spectrophotometric analysis. The format is cell-based.
Assay [4] has as its system NCI-H460. The assay is described as follows: Antiproliferative activity against human H460 cells incubated for 4 days by MTT assay. To be noted: NCI-H460, 96 h. The format is functional, cell-based. Background: Tetrazolium assays rely on reduction of a dye to a coloured formazan, in cell work by metabolically active cells.
Assay [5] relates to Saccharomyces cerevisiae. In words: Inhibition of yeast RNA polymerase 1 in YBR140C cells expressing human RNA polymerase 1 promoter and rRNA assessed as reduction in cell growth at 126 to 2500 nM by UV-spectrophotometric analysis. It is filed as cell-based.
Assay [6] relates to Saccharomyces cerevisiae. The assay is described as follows: Inhibition of yeast RNA polymerase 1 in YBR140C cells expressing human RNA polymerase 1 promoter and rRNA assessed as reduction in human rDNA transcription at 312 to 2500 nM by qRT-PCR analysis. The format is cell-based.

As to `COCc1c(C(C)C)nc(C(C)C)c(/C=C/[C@@H](O)C[C@@H](O)CC(=O)O)c1-c1ccc(F)cc1` [CERIVASTATIN SODIUM], the inhibition result in assay [1] and in assay [3] was “Active” each time. The results for the IC50 in assay [2] and in assay [4] were 700 nM and 3500 nM, respectively.

`Cc1cnc(CNC(=O)c2c(=O)c3ccc(N4CCCN(C)CC4)nc3n3c2sc2ccccc23)cn1` [CX-5461] yielded an IC50 in assay [2] of 120 nM. In addition, the inhibition result in assay [5] and in assay [6] was “Active” each time.
